{"source": "the NIST ThermoML archive (doi:10.1021/je0504111)", "key": {"[1]": {"settings": "298.15 K; for surface tension liquid-gas: Drop volume; for mass density: 101.33 kPa, Liquid"}, "[2]": {"test": "refractive index (Na D-line) (dimensionless)", "settings": "298.15 K; 101.33 kPa; Liquid; Standard Abbe refractometry"}, "[3]": {"test": "xn = mol fraction of the nth substance listed", "settings": "298.15 K; for surface tension liquid-gas: Drop volume; for mass density: 101 kPa, Liquid"}, "[4]": {"test": "refractive index (Na D-line) (dimensionless); xn = mol fraction of the nth substance listed", "settings": "298.15 K, 101 kPa, Liquid"}}, "note": "± gives the expanded uncertainty stated by the source."}
{"molecule": "Cc1cccc(C)c1", "note": "[1,3-dimethylbenzene]", "values": [{"measurement": "surface tension liquid-gas", "setting": "[1]", "value": "28.03 ± 0.21", "unit": "mN/m"}, {"measurement": "mass density", "setting": "[1]", "value": "859.78 ± 0.63", "unit": "kg/m3"}, {"measurement": "refractive index", "setting": "[2]", "value": "1.4945 ± 0.0004"}]}
{"molecule": "Cc1cccc(C)c1", "note": "[1,3-dimethylbenzene] + CCCCCC", "values": [{"measurement": "surface tension liquid-gas", "setting": "[3]; x2 = 0.0522", "value": "27.13 ± 0.2", "unit": "mN/m"}, {"measurement": "surface tension liquid-gas", "setting": "[3]; x2 = 0.0797", "value": "26.69 ± 0.2", "unit": "mN/m"}, {"measurement": "surface tension liquid-gas", "setting": "[3]; x2 = 0.1442", "value": "25.66 ± 0.19", "unit": "mN/m"}, {"measurement": "surface tension liquid-gas", "setting": "[3]; x2 = 0.2008", "value": "24.85 ± 0.18", "unit": "mN/m"}, {"measurement": "surface tension liquid-gas", "setting": "[3]; x2 = 0.2281", "value": "24.48 ± 0.18", "unit": "mN/m"}, {"measurement": "surface tension liquid-gas", "setting": "[3]; x2 = 0.3075", "value": "23.5 ± 0.17", "unit": "mN/m"}, {"measurement": "surface tension liquid-gas", "setting": "[3]; x2 = 0.3603", "value": "22.91 ± 0.17", "unit": "mN/m"}, {"measurement": "surface tension liquid-gas", "setting": "[3]; x2 = 0.4106", "value": "22.39 ± 0.16", "unit": "mN/m"}, {"measurement": "surface tension liquid-gas", "setting": "[3]; x2 = 0.4174", "value": "22.33 ± 0.16", "unit": "mN/m"}, {"measurement": "surface tension liquid-gas", "setting": "[3]; x2 = 0.5086", "value": "21.5 ± 0.16", "unit": "mN/m"}, {"measurement": "surface tension liquid-gas", "setting": "[3]; x2 = 0.5677", "value": "21.01 ± 0.15", "unit": "mN/m"}, {"measurement": "surface tension liquid-gas", "setting": "[3]; x2 = 0.6431", "value": "20.41 ± 0.15", "unit": "mN/m"}, {"measurement": "surface tension liquid-gas", "setting": "[3]; x2 = 0.6771", "value": "20.15 ± 0.15", "unit": "mN/m"}, {"measurement": "surface tension liquid-gas", "setting": "[3]; x2 = 0.7418", "value": "19.7 ± 0.14", "unit": "mN/m"}, {"measurement": "surface tension liquid-gas", "setting": "[3]; x2 = 0.7668", "value": "19.54 ± 0.14", "unit": "mN/m"}, {"measurement": "surface tension liquid-gas", "setting": "[3]; x2 = 0.8545", "value": "18.99 ± 0.14", "unit": "mN/m"}, {"measurement": "surface tension liquid-gas", "setting": "[3]; x2 = 0.8802", "value": "18.83 ± 0.14", "unit": "mN/m"}, {"measurement": "surface tension liquid-gas", "setting": "[3]; x2 = 0.96", "value": "18.29 ± 0.14", "unit": "mN/m"}, {"measurement": "mass density", "setting": "[3]; x2 = 0.0431", "value": "850.57 ± 0.55", "unit": "kg/m3"}, {"measurement": "mass density", "setting": "[3]; x2 = 0.0825", "value": "842.28 ± 0.55", "unit": "kg/m3"}, {"measurement": "mass density", "setting": "[3]; x2 = 0.1572", "value": "826.64 ± 0.55", "unit": "kg/m3"}, {"measurement": "mass density", "setting": "[3]; x2 = 0.2093", "value": "815.69 ± 0.55", "unit": "kg/m3"}, {"measurement": "mass density", "setting": "[3]; x2 = 0.2575", "value": "805.59 ± 0.56", "unit": "kg/m3"}, {"measurement": "mass density", "setting": "[3]; x2 = 0.2997", "value": "796.8 ± 0.56", "unit": "kg/m3"}, {"measurement": "mass density", "setting": "[3]; x2 = 0.3563", "value": "785.03 ± 0.56", "unit": "kg/m3"}, {"measurement": "mass density", "setting": "[3]; x2 = 0.4278", "value": "770.24 ± 0.57", "unit": "kg/m3"}, {"measurement": "mass density", "setting": "[3]; x2 = 0.483", "value": "758.86 ± 0.58", "unit": "kg/m3"}, {"measurement": "mass density", "setting": "[3]; x2 = 0.5167", "value": "751.98 ± 0.58", "unit": "kg/m3"}, {"measurement": "mass density", "setting": "[3]; x2 = 0.5833", "value": "738.31 ± 0.6", "unit": "kg/m3"}, {"measurement": "mass density", "setting": "[3]; x2 = 0.6294", "value": "728.97 ± 0.6", "unit": "kg/m3"}, {"measurement": "mass density", "setting": "[3]; x2 = 0.6769", "value": "719.32 ± 0.61", "unit": "kg/m3"}, {"measurement": "mass density", "setting": "[3]; x2 = 0.7318", "value": "708.21 ± 0.62", "unit": "kg/m3"}, {"measurement": "mass density", "setting": "[3]; x2 = 0.7817", "value": "698.13 ± 0.63", "unit": "kg/m3"}, {"measurement": "mass density", "setting": "[3]; x2 = 0.8329", "value": "687.89 ± 0.65", "unit": "kg/m3"}, {"measurement": "mass density", "setting": "[3]; x2 = 0.8914", "value": "676.22 ± 0.66", "unit": "kg/m3"}, {"measurement": "mass density", "setting": "[3]; x2 = 0.9446", "value": "665.65 ± 0.67", "unit": "kg/m3"}, {"measurement": "refractive index", "setting": "[4]; x2 = 0.0431", "value": "1.4891 ± 0.0007"}, {"measurement": "refractive index", "setting": "[4]; x2 = 0.083", "value": "1.484 ± 0.0007"}, {"measurement": "refractive index", "setting": "[4]; x2 = 0.1562", "value": "1.4748 ± 0.0007"}, {"measurement": "refractive index", "setting": "[4]; x2 = 0.2093", "value": "1.4682 ± 0.0007"}, {"measurement": "refractive index", "setting": "[4]; x2 = 0.2997", "value": "1.4569 ± 0.0007"}, {"measurement": "refractive index", "setting": "[4]; x2 = 0.3521", "value": "1.4502 ± 0.0007"}, {"measurement": "refractive index", "setting": "[4]; x2 = 0.4276", "value": "1.4409 ± 0.0007"}, {"measurement": "refractive index", "setting": "[4]; x2 = 0.5167", "value": "1.43 ± 0.0007"}, {"measurement": "refractive index", "setting": "[4]; x2 = 0.5798", "value": "1.4223 ± 0.0006"}, {"measurement": "refractive index", "setting": "[4]; x2 = 0.6769", "value": "1.4106 ± 0.0006"}, {"measurement": "refractive index", "setting": "[4]; x2 = 0.7318", "value": "1.404 ± 0.0006"}, {"measurement": "refractive index", "setting": "[4]; x2 = 0.8329", "value": "1.392 ± 0.0006"}, {"measurement": "refractive index", "setting": "[4]; x2 = 0.8836", "value": "1.386 ± 0.0006"}, {"measurement": "refractive index", "setting": "[4]; x2 = 0.9325", "value": "1.3803 ± 0.0006"}]}
{"molecule": "CCCCCC", "note": "[hexane]", "values": [{"measurement": "surface tension liquid-gas", "setting": "[1]", "value": "17.91 ± 0.13", "unit": "mN/m"}, {"measurement": "mass density", "setting": "[1]", "value": "654.7 ± 0.47", "unit": "kg/m3"}, {"measurement": "refractive index", "setting": "[2]", "value": "1.3723 ± 0.0004"}]}
{"molecule": "CCCOC(=O)CC", "note": "[propyl propanoate]", "values": [{"measurement": "surface tension liquid-gas", "setting": "[1]", "value": "24.1 ± 0.19", "unit": "mN/m"}, {"measurement": "mass density", "setting": "[1]", "value": "875.53 ± 0.61", "unit": "kg/m3"}, {"measurement": "refractive index", "setting": "[2]", "value": "1.3905 ± 0.0004"}]}
{"molecule": "CCCOC(=O)CC", "note": "[propyl propanoate] + Cc1cccc(C)c1", "values": [{"measurement": "refractive index", "setting": "[4]; x1 = 0.0448", "value": "1.4894 ± 0.0007"}, {"measurement": "refractive index", "setting": "[4]; x1 = 0.1176", "value": "1.4814 ± 0.0007"}, {"measurement": "refractive index", "setting": "[4]; x1 = 0.1702", "value": "1.4756 ± 0.0007"}, {"measurement": "refractive index", "setting": "[4]; x1 = 0.2173", "value": "1.4704 ± 0.0007"}, {"measurement": "refractive index", "setting": "[4]; x1 = 0.3134", "value": "1.4599 ± 0.0007"}, {"measurement": "refractive index", "setting": "[4]; x1 = 0.3923", "value": "1.4515 ± 0.0007"}, {"measurement": "refractive index", "setting": "[4]; x1 = 0.4461", "value": "1.4458 ± 0.0007"}, {"measurement": "refractive index", "setting": "[4]; x1 = 0.4902", "value": "1.4412 ± 0.0007"}, {"measurement": "refractive index", "setting": "[4]; x1 = 0.5421", "value": "1.4358 ± 0.0007"}, {"measurement": "refractive index", "setting": "[4]; x1 = 0.5906", "value": "1.4308 ± 0.0007"}, {"measurement": "refractive index", "setting": "[4]; x1 = 0.6442", "value": "1.4254 ± 0.0007"}, {"measurement": "refractive index", "setting": "[4]; x1 = 0.7474", "value": "1.4151 ± 0.0007"}, {"measurement": "refractive index", "setting": "[4]; x1 = 0.7982", "value": "1.4101 ± 0.0007"}, {"measurement": "refractive index", "setting": "[4]; x1 = 0.8483", "value": "1.4052 ± 0.0007"}, {"measurement": "refractive index", "setting": "[4]; x1 = 0.8942", "value": "1.4008 ± 0.0007"}, {"measurement": "refractive index", "setting": "[4]; x1 = 0.9522", "value": "1.3952 ± 0.0007"}]}
